Reference: patent US8618289B2 (Ambit Biosciences Corporation, priority 2008, dated 2013)

Experiments:
A375 cells = experiment: cells; settings: Homo sapiens, A-375, read-out: A375 Viability EC50
Description: The following day, the medium was replaced with 0.5% FBS in M3 for overnight incubation. […] The cells were incubated with compound or control for 72 hours at 37° C. under 10% CO2. Following incubation, Cell Titer Blue reagent (Promega) was added to each well containing compounds or controls, and then incubated for 3 hours at 37° C. under 10% CO2. Proliferation was measured by fluorescence with excitation at 560 nm and emission at 590 nm using SoftMax Pro.

RAF kinases = RAF kinases (Homo sapiens, UniProt P15056); experiment: biochemical
Description: Competition binding assays used herein were developed, validated and performed as described in Fabian et al., Nature Biotechnology 2005, 23, 329-336. […] The liganded beads were blocked with excess biotin and washed with blocking buffer (SeaBlock (Pierce), 1% BSA, 0.05% Tween 20, 1 mM DTT) to remove unbound ligand and to reduce non-specific binding. […] Test compounds were prepared as 100× stocks in DMSO and rapidly diluted into the aqueous environment. DMSO was added to control assays lacking a test compound. Primary screen interactions were performed in polypropylene 384-well plates in a final volume of 34 μt, while Kd determinations were performed in polystyrene 96-well plates in a final volume of 135 pt. […] The kinase concentration in the eluates was measured by quantitative PCR. Each kinase was tested individually against each compound. Kds were determined using eleven serial threefold dilutions. A selectivity score, which is a quantitative measure of selectivity of a compound against a panel of enzymes, may be calculated for a compound by dividing the number of enzymes for which a compound meets a set criteria, (for example, a binding constant of 100 nM or less), by the total number of enzymes tested. […] (Note, for those compounds tested in a larger kinase panel, as indicated by an asterisk (*) next to the S35 score, the divisor is 321 (i.e. the larger panel contains 321 distinct kinases, excluding mutant variants.)).

[1] = tested on: MEK1 phosphorylation in the A375 human melanoma cell line; experiment: cells; settings: A-375, read-out: pMEK IC50

Chain of RAF kinases (P15056 whole entry): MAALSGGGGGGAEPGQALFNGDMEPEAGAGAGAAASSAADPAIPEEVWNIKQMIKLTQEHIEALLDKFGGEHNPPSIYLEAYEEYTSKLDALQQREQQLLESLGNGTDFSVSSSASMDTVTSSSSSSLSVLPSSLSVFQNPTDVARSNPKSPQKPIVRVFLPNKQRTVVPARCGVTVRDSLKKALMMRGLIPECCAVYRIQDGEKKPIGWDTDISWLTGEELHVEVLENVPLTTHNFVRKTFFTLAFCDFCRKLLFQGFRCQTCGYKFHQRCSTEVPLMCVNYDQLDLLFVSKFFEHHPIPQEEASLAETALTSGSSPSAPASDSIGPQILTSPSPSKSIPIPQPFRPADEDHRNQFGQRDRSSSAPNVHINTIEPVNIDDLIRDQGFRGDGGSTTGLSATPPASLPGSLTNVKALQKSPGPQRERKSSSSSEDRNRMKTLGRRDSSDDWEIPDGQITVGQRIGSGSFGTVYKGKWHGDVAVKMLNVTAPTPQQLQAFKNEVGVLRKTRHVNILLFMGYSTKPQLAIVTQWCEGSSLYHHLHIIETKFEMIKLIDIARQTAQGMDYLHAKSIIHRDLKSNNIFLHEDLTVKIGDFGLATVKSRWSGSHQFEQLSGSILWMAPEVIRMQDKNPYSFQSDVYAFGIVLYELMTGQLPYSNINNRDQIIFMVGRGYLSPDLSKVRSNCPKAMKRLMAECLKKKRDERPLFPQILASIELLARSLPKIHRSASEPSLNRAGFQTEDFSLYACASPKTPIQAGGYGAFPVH

Row | SMILES | EC50 (A375 cells) [nM] | Kd (RAF kinases) [nM] | IC50 [1] [nM]
1 | COc1cc2ncnc(Oc3cccc(NC(=O)Nc4cc(C(C)(C)C)on4)c3)c2cc1OCCN1CCCCC1 [Ex 16, 1-(5-tert-butylisoxazol-3-yl)-3-(3-(7-methoxy-6-(2-(piperidin-1-yl)ethoxy)quinazolin-4-yloxy)phenyl)urea] | > 1000 | 500 to 1000 | 250 to 500
2 | COc1cc2ncnc(Oc3cccc(NC(=O)Nc4cc(C(C)(C)C)on4)c3)c2cc1OCCCN1CCOCC1 [Ex 22, 1-(5-tert-butylisoxazol-3-yl)-3-(3-(7-methoxy-6-(3-morpholinopropoxy)quinazolin-4-yloxy)phenyl)urea] | < 250 |  | < 250
3 | COc1cc2ncnc(Oc3cccc(NC(=O)Nc4cc(C(C)(C)C)on4)c3)c2cc1OCCCN1CCS(=O)(=O)CC1 [Ex 26, 1-(5-tert-butyl-isoxazol-3-yl)-3-(3-{6-[3-(1,1-dioxo-thiomorpholin-4-yl)-propoxy]-7-methoxy-quinazolin-4-yloxy}-phenyl)-urea] | < 250 | 250 to 500 | < 250
4 | COc1cc2c(Oc3cccc(NC(=O)Nc4cc(C(C)(C)C)on4)c3)ncnc2cc1OCCCN1CCN(C)CC1 [Ex 28, 1-(5-tert-butylisoxazol-3-yl)-3-(3-(6-methoxy-7-(3-(4-methylpiperazin-1-yl)propoxy)quinazolin-4-yloxy)phenyl)urea] | < 250 | 250 to 500 | < 250
5 | COc1cc2ncnc(Sc3cccc(NC(=O)Nc4cc(C(C)(C)C)on4)c3)c2cc1OCCCS(C)(=O)=O [Ex 64, 1-(5-tert-butylisoxazol-3-yl)-3-(3-(7-methoxy-6-(3-(methylsulfonyl)propoxy)quinazolin-4-ylthio)phenyl)urea] | 250 to 500 |  | < 250
6 | COc1cc2ncnc(Sc3cccc(NC(=O)Nc4cc(C(C)(C)C)on4)c3)c2cc1OCCN1CCS(=O)(=O)CC1 [Ex 71, 1-(5-tert-butyl-isoxazol-3-yl)-3-(3-{6-[2-(1,1-dioxo-thiomorpholin-4-yl)-ethoxy]-7-methoxy-quinazolin-4-ylsulfanyl}-phenyl)-urea] | 250 to 500 |  | < 250
7 | COc1cc2ncnc(Sc3cccc(NC(=O)Nc4cc(C(C)(C)C)on4)c3)c2cc1OCCS(C)(=O)=O [Ex 88, 1-(5-tert-butylisoxazol-3-yl)-3-(3-(7-methoxy-6-(2-(methylsulfonyl)ethoxy)quinazolin-4-ylthio)phenyl)urea] | 500 to 1000 |  | < 250
8 | COc1cc2nc(Cl)nc(Sc3cccc(NC(=O)Nc4cc(C(C)(C)C)on4)c3)c2cc1OC [Ex 89, 1-(5-tert-butylisoxazol-3-yl)-3-(3-(2-chloro-6,7-dimethoxyquinazolin-4-ylthio)phenyl)urea] |  |  | > 1000
9 | COc1cc2c(Oc3cccc(NC(=O)Nc4cc(C(C)(C)C)on4)c3)ncnc2cc1OC[C@H](O)CN1CCN(C)CC1 [Ex 100, (R)-1-(5-tert-butylisoxazol-3-yl)-3-(3-(7-(2-hydroxy-3-(4-methylpiperazin-1-yl)propoxy)-6-methoxyquinazolin-4-yloxy)phenyl)urea] | < 250 |  | < 250
10 | COc1cc2c(Oc3cccc(NC(=O)Nc4cc(C(C)(C)C)on4)c3)ncnc2cc1O[C@H]1CCN(CC(F)(F)F)C1 [Ex 104, (S)-1-(5-tert-butylisoxazol-3-yl)-3-(3-{6-methoxy-7-[1-(2,2,2-trifluoroethyl)pyrrolidin-3-yloxy]quinazolin-4-yloxy}phenyl)urea] | > 1000 |  | 500 to 1000
11 | COc1cc2c(Oc3cccc(NC(=O)Nc4cc(C(C)(C)C)on4)c3)ncnc2cc1OC1CCN(CC(F)F)CC1 [Ex 105, 1-(5-tert-butylisoxazol-3-yl)-3-(3-{7-[1-(2,2-difluoroethyl)piperidin-4-yloxy]-6-methoxyquinazolin-4-yloxy}phenyl)urea] | > 1000 |  | > 1000
12 | COc1cc2ncnc(Oc3cccc(NC(=O)Nc4cc(C(C)(C)C)on4)c3)c2cc1O[C@H]1CCN(C)C1 [Ex 109, (S)-1-(5-tert-butylisoxazol-3-yl)-3-(3-(7-methoxy-6-(1-methylpyrrolidin-3-yloxy)quinazolin-4-yloxy)phenyl)urea] | 250 to 500 |  | < 250
13 | COc1cc2ncnc(Oc3cccc(NC(=O)Nc4cc(C(C)C)no4)c3)c2cc1OC [Ex 122, 1-(3-(6,7-dimethoxyquinazolin-4-yloxy)phenyl)-3-(3-isopropylisoxazol-5-yl)urea] | > 1000 |  | 250 to 500
14 | COc1cc2ncnc(Oc3cccc(NC(=O)Nc4cc(C5CC5)no4)c3)c2cc1OC [Ex 124, 1-(3-cyclopropylisoxazol-5-yl)-3-(3-(6,7-dimethoxyquinazolin-4-yloxy)phenyl)urea] | > 1000 |  | > 1000
15 | COc1cc2ncnc(Oc3cccc(NC(=O)Nc4cc(C5(C)CC5)on4)c3)c2cc1OC [Ex 127, 1-(3-(6,7-dimethoxyquinazolin-4-yloxy)phenyl)-3-(5-(1-methylcyclopropyl)isoxazol-3-yl)urea] | > 1000 |  | 250 to 500
16 | COCC(C)(C)c1cc(NC(=O)Nc2cccc(Oc3ncnc4cc(OC)c(OC)cc34)c2)on1 [Ex 128, 1-(3-(6,7-dimethoxyquinazolin-4-yloxy)phenyl)-3-(3-(1-methoxy-2-methylpropan-2-yl)isoxazol-5-yl)urea] | > 1000 |  | 500 to 1000

Row | SMILES | EC50 (A375 cells) [nM] | Kd (RAF kinases) [nM] | IC50 [1] [nM]
17 | COc1cc2ncnc(Oc3cccc(NC(=O)Nc4cc(C(C)C)on4)c3)c2cc1OC [Ex 133, 1-(3-(6,7-dimethoxyquinazolin-4-yloxy)phenyl)-3-(5-isopropylisoxazol-3-yl)urea] | 500 to 1000 |  | 250 to 500
18 | COc1cc2ncnc(Sc3cccc(NC(=O)Nc4cc(C(C)C)on4)c3)c2cc1OC [Ex 134, 1-(3-(6,7-dimethoxyquinazolin-4-ylthio)phenyl)-3-(5-isopropylisoxazol-3-yl)urea] | > 1000 |  | 250 to 500
19 | COc1cc2ncnc(Oc3cccc(NC(=O)Nc4cc(C5CCCC5)on4)c3)c2cc1OC [Ex 135, 1-(5-cyclopentylisoxazol-3-yl)-3-(3-(6,7-dimethoxyquinazolin-4-yloxy)phenyl)urea] | 250 to 500 |  | < 250
20 | COc1cc2ncnc(Oc3cccc(NC(=O)Nc4cc(C(C)(C)F)on4)c3)c2cc1OC [Ex 136, 1-(3-(6,7-dimethoxyquinazolin-4-yloxy)phenyl)-3-(5-(2-fluoropropan-2-yl)isoxazol-3-yl)urea] | 250 to 500 |  | < 250
21 | COCCOc1cc2ncnc(Oc3cccc(NC(=O)Nc4ccc(OC)c(C(F)(F)F)c4)c3)c2cc1OC [Ex 139, 1-(4-methoxy-3-(trifluoromethyl)phenyl)-3-(3-(6-methoxy-7-(2-methoxyethoxy)quinazolin-4-yloxy)phenyl)urea] | > 1000 |  | 250 to 500
22 | COc1cc2ncnc(Oc3cccc(NC(=O)Nc4cc(C(F)(F)F)ccn4)c3)c2cc1OC [Ex 141, 1-(3-(6,7-dimethoxyquinazolin-4-yloxy)phenyl)-3-(4-(trifluoromethyl)pyridin-2-yl)urea] | > 1000 |  | 500 to 1000
23 | COc1cc2ncnc(Sc3cccc(NC(=O)Nc4cc(C(C)(C)C)nn4-c4ccccc4)c3)c2cc1OC [Ex 154, 1-(3-tert-butyl-1-phenyl-1H-pyrazol-5-yl)-3-(3-(6,7-dimethoxyquinazolin-4-ylthio)phenyl)urea] |  |  | < 250
24 | COc1cc2ncnc(Oc3cccc(NC(=O)Nc4cc(C(F)(F)F)nn4C)c3)c2cc1OC [Ex 164, 1-[3-(6,7-dimethoxyquinazolin-4-yloxy)phenyl]-3-[1-methyl-3-(trifluoromethyl)-1H-pyrazol-5-yl]urea] | > 1000 |  | 250 to 500
25 | COc1cc2ncnc(Oc3cccc(NC(=O)Nc4cc(C(F)(F)F)n(C)n4)c3)c2cc1OC [Ex 165, 1-[3-(6,7-dimethoxyquinazolin-4-yloxy)phenyl]-3-[1-methyl-5-(trifluoromethyl)-1H-pyrazol-3-yl]urea] | 500 to 1000 |  | 250 to 500
26 | COc1cc2ncnc(Oc3cccc(NC(=O)Nc4cc(C(C)(CF)CF)nn4-c4ccccc4)c3)c2cc1OC [Ex 167, 1-[3-(1,3-difluoro-2-methylpropan-2-yl)-1-phenyl-1H-pyrazol-5-yl]-3-[3-(6,7-dimethoxyquinazolin-4-yloxy)phenyl]urea] | 500 to 1000 |  | < 250
27 | COc1cc2ncnc(Oc3cccc(NC(=O)Nc4cc(C(F)(F)F)n(-c5ccccc5)n4)c3)c2cc1OC [Ex 169, 1-[3-(6,7-dimethoxyquinazolin-4-yloxy)phenyl]-3-[1-phenyl-5-(trifluoromethyl)-1H-pyrazol-3-yl]urea] | > 1000 |  | 250 to 500
28 | COc1cc2ncnc(Oc3cccc(NC(=O)Nc4ccc(Cl)cc4)c3)c2cc1OC [Ex 175, 1-(4-chlorophenyl)-3-(3-(6,7-dimethoxyquinazolin-4-yloxy)phenyl)urea] | > 1000 |  | > 1000
29 | COc1ccc(NC(=O)Nc2cccc(Oc3ncnc4cc(OC)c(OC)cc34)c2)cc1Cl [Ex 180, 1-(3-chloro-4-methoxyphenyl)-3-(3-(6,7-dimethoxyquinazolin-4-yloxy)phenyl)urea] | > 1000 |  | > 1000
30 | COc1cc2ncnc(Oc3cccc(NC(=O)Nc4cccc(C(F)(F)F)c4)c3)c2cc1OC [Ex 181, 1-(3-(6,7-dimethoxyquinazolin-4-yloxy)phenyl)-3-(3-(trifluoromethyl)phenyl)urea] | > 1000 |  | > 1000
31 | COc1cc2ncnc(Sc3cccc(NC(=O)Nc4cc(C(F)(F)F)nn4C)c3)c2cc1OC [Ex 193, 1-[3-(6,7-dimethoxyquinazolin-4-ylthio)phenyl]-3-[1-methyl-3-(trifluoromethyl)-1H-pyrazol-5-yl]urea] | 500 to 1000 |  | < 250
32 | COc1cc2ncnc(Sc3cccc(NC(=O)Nc4cc(C(C)(CF)CF)nn4-c4ccccc4)c3)c2cc1OC [Ex 196, 1-[3-(1,3-difluoro-2-methylpropan-2-yl)-1-phenyl-1H-pyrazol-5-yl]-3-[3-(6,7-dimethoxyquinazolin-4-ylthio)phenyl]urea] | > 1000 |  | < 250
